{"source": "PubChem BioAssay AID1421", "about": "(Emory University Molecular Libraries Screening Center, 2008)", "note": "Activity calls are given as the source filed them. The rule behind the calls is not given here.", "data": [{"target": "Prostaglandin E2 receptor EP2 subtype (Homo sapiens) (UniProt P43116)", "sequence (P43116 whole entry, looked up)": "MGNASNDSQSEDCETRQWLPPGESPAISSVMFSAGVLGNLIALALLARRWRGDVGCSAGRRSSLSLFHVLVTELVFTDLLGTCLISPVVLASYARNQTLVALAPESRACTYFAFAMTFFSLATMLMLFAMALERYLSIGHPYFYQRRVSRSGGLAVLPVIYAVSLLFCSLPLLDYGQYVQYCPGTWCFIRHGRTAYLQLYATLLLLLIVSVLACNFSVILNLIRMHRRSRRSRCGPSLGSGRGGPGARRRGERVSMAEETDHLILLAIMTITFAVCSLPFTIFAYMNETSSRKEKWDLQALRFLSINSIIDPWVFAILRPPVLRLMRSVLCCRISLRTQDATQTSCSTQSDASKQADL", "test": "EP2 receptor modulators, dose response, cell-based, human EP2, PGE2 EC50 shift (AID 1421)", "details": "EP2-expressing cells, PGE2 EC50 shift by compound", "values": [{"compound": "CCOC(=O)c1c(NC(=O)CN2CCCCC2)sc(C)c1C", "outcome": "active"}, {"compound": "Cc1ccc(NCc2ccccc2OCc2ccccc2F)cc1", "outcome": "active"}, {"compound": "COc1ccccc1NC(=O)c1c(C)oc2c1CCCC2", "outcome": "active"}]}, {"target": "Prostaglandin E2 receptor EP2 subtype (Homo sapiens) (UniProt P43116)", "test": "EP2 receptor modulators, dose response, cell-based, human EP2, PGE2 EC50 shift (AID 1421)", "details": "EP2-expressing cells, PGE2 EC50 shift by compound; measured here: PGE2 EC50 at 6.7 uM compound", "units": {"PGE2 EC50 with compound": "nM"}, "values": [{"compound": "O=C(c1cn(Cc2ccccc2)c2ccccc12)C1CC1", "PGE2 EC50 with compound": 2.61}, {"compound": "Cc1cccc(-c2nc(=S)c3c(n2Cc2ccco2)CCCC3)c1", "PGE2 EC50 with compound": 0.88}, {"compound": "Cc1onc(-c2c(F)cccc2Cl)c1C(=O)OCn1nnc2ccccc2c1=O", "PGE2 EC50 with compound": 0.92}, {"compound": "O=C(Oc1ccc(-c2nccc(-c3ccccn3)n2)cc1)c1cccc(C(F)(F)F)c1", "PGE2 EC50 with compound": 1.44}, {"compound": "CC(=O)N1c2ccccc2C(C)CC12CCCCC2", "note": "(stereo not given)", "PGE2 EC50 with compound": 2.48}, {"compound": "Cc1ccc(-c2cc3ccccc3nc2N2CCOCC2)cc1", "PGE2 EC50 with compound": 1.45}, {"compound": "c1ccc(-c2nn3c(-c4ccccc4)nnc3s2)cc1", "PGE2 EC50 with compound": 0.84}, {"compound": "COCCNC(=O)C(c1ccc(F)cc1)N(CC1CCCO1)C(=O)CCC(=O)Nc1ccccn1", "note": "(stereo not given)", "PGE2 EC50 with compound": 2.09}, {"compound": "CCOC(=O)c1c(NC(=O)CN2CCCCC2)sc(C)c1C", "PGE2 EC50 with compound": 0.89}, {"compound": "CCCn1c(C)nc2c(c1=O)c1nc3ccccc3nc1n2CCC1=CCCCC1", "PGE2 EC50 with compound": 1.42}, {"compound": "CCOC(=O)c1c(NC(=O)CN2C(=O)NC3(CCCCCC3)C2=O)sc(C)c1-c1ccc(C)cc1", "PGE2 EC50 with compound": 0.76}, {"compound": "CCOC(=O)c1ccccc1NC1c2ccccc2C(=O)N1c1cc(C)ccn1", "note": "(stereo not given)", "PGE2 EC50 with compound": 1.13}, {"compound": "Cn1c(=O)c2c(nc(SCC(=O)N3CCc4ccccc4C3)n2C)n(C)c1=O", "PGE2 EC50 with compound": 1.51}, {"compound": "COc1ccc(C(=O)/C(=C/O)N=Nc2ccc(F)cc2)cc1", "PGE2 EC50 with compound": 1}, {"compound": "COC(=O)c1ccccc1NC(=O)C(C)Oc1ccccc1", "note": "(stereo not given)", "PGE2 EC50 with compound": 0.9}, {"compound": "O=C(NCc1ccco1)C(c1cccs1)N(C(=O)Cc1cccs1)c1ccccc1", "note": "(stereo not given)", "PGE2 EC50 with compound": 1.49}, {"compound": "O=C(CSc1nnc(-c2cc3ccccc3cc2O)n1Cc1ccco1)c1ccc(F)cc1", "PGE2 EC50 with compound": 1.35}, {"compound": "COC(=O)CC1C(C)(C)C(OC(C)=O)[C@@H]2[C@@H](OC(C)=O)[C@]34O[C@@]2(O)[C@]1(C)C3CC[C@]1(C)C4=CC(=O)O[C@H]1c1ccoc1", "note": "(stereo not given in full)", "PGE2 EC50 with compound": 0.74}, {"compound": "Cc1ccc(NCc2ccccc2OCc2ccccc2F)cc1", "PGE2 EC50 with compound": 0.86}, {"compound": "CC(C)C1(C)N=C(c2ncccc2C(=O)O)NC1=O", "note": "(stereo not given)", "PGE2 EC50 with compound": 2.52}, {"compound": "C=CCSc1nc2ccsc2c(=O)n1-c1ccccc1", "PGE2 EC50 with compound": 2.54}, {"compound": "CCOP(=O)(OCC)c1nc(-c2cccc3ccccc23)oc1NCc1ccccc1", "PGE2 EC50 with compound": 2.48}, {"compound": "O=C(Cc1ccc(Cl)cc1)Nc1ccccc1Sc1ccccc1", "PGE2 EC50 with compound": 1.07}, {"compound": "CCC1CCc2c(sc3ncnc(N4CCOCC4)c23)C1", "note": "(stereo not given)", "PGE2 EC50 with compound": 0.81}, {"compound": "COc1ccc(OC(=O)c2cccc([N+](=O)[O-])c2)c(C(=O)/C=C/c2cccs2)c1", "PGE2 EC50 with compound": 2.52}, {"compound": "C=CCn1c(=S)[nH]c2sccc2c1=O", "PGE2 EC50 with compound": 1.53}, {"compound": "CC(=O)c1ccc(S(=O)(=O)NCCCC(=O)NCCc2ccccn2)cc1", "PGE2 EC50 with compound": 1.15}, {"compound": "CCSc1ccccc1C(=O)n1nnc2ccccc21", "PGE2 EC50 with compound": 1.77}, {"compound": "Oc1ccc(/C=N/N(Cc2ccccc2)c2ccccc2)cc1", "PGE2 EC50 with compound": 0.76}, {"compound": "CSc1nnc2c3ccccc3c3ccccc3c2n1", "PGE2 EC50 with compound": 1}, {"compound": "C=CCn1c(=O)c2c(nc(-c3ccc(S(=O)(=O)O)cc3)n2C)n(C)c1=O", "PGE2 EC50 with compound": 2.68}, {"compound": "COc1ccccc1NC(=O)c1c(C)oc2c1CCCC2", "PGE2 EC50 with compound": 1.19}, {"compound": "CCCCC(CC)CN1CN(CC(CC)CCCC)CC(C)(N)C1", "note": "(stereo not given)", "PGE2 EC50 with compound": 1.05}, {"compound": "Cc1ccc(C)n1-c1sc2c(c1C#N)CCCC2", "PGE2 EC50 with compound": 2.65}, {"compound": "Cc1ccc2nc(-c3ccccn3)c(Nc3ccccc3C)n2c1", "PGE2 EC50 with compound": 0.79}, {"compound": "C=CCOc1nc(-c2ccncc2)nc2ccccc12", "PGE2 EC50 with compound": 2.48}, {"compound": "CCCC1=C(C(=O)OCC)C(c2cccs2)C(C#N)=C(N)O1", "note": "(stereo not given)", "PGE2 EC50 with compound": 0.82}, {"compound": "Cc1c(OCc2ccccc2)c(=O)ccn1Cc1ccc(Cl)cc1", "PGE2 EC50 with compound": 1.02}, {"compound": "Cn1c(CNc2ccc(F)cc2)nnc1SCC(=O)NNC(=O)Cc1ccccc1", "PGE2 EC50 with compound": 1.63}, {"compound": "O=C(c1ccc(Br)o1)N(Cc1ccccc1)Cc1ccccc1", "PGE2 EC50 with compound": 0.77}, {"compound": "O=C(O)c1ccc(C(=O)O)c(C(=O)Nc2ccc3c(c2)Cc2ccccc2-3)c1", "PGE2 EC50 with compound": 2.77}, {"compound": "N#CC1=C(N)SC(N)=C(C#N)C1c1ccoc1", "PGE2 EC50 with compound": 2.61}]}]}
